This note sets out measurements from PubChem BioAssay AID1645865 (Buhrlage Lab, Dana-Farber Cancer Institute and Novartis …, 2021).

Activity calls are given as the source filed them.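 The calls were made as follows: active = maximal inhibition of the USP30 enzyme reaching 30% or more across the dose series; inactive = the rest.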 A value given as a limit tells only on which side of the number the result lay.

Ubiquitin carboxyl-terminal hydrolase 30 (Homo sapiens), sequence (Q70CQ3 whole entry, looked up): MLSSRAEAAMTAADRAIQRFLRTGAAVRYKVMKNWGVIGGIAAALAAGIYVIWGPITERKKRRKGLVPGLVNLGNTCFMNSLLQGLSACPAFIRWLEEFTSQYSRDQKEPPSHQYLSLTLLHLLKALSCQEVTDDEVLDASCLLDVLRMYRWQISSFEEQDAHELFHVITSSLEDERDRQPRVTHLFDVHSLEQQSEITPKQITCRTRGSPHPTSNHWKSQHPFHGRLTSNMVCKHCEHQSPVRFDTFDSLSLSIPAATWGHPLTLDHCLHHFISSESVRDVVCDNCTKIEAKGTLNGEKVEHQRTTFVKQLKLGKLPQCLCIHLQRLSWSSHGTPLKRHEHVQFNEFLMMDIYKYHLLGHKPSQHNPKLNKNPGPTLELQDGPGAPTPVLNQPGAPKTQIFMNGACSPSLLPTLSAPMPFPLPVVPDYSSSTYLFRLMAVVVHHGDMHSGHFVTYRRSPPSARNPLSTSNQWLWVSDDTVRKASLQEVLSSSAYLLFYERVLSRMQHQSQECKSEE

This assay has as its target Ubiquitin carboxyl-terminal hydrolase 30 (Homo sapiens) (UniProt Q70CQ3). Kind of assay: inhibitors of ubiquitin-specific protease 30 deubiquitylating enzyme, concentration dependence, in vitro biochemical, validation of primary hits (AID 1645865). The note with it: purified USP30, Ub-rhodamine cleavage, fluorescence, 2 h.
As to `O=C(NCc1ccco1)c1ccc2c(c1)N(Cc1cccc(F)c1)C(=O)c1ccccc1S2`, the IC50 is > 50 µM (inactive).
In the case of `Cc1cc(C#N)c2c(C)ccc(C(C)C)cc1-2` it was > 50 µM (inactive); in that of `Cc1cc(C)c2sc(N(CCCn3ccnc3)C(=O)Cc3ccccc3)nc2c1`, 17.5 µM; in that of `COc1ccc(OC)c(NC(=O)c2cc(Cl)ccc2OC)c1`, 1.59 µM.
In the case of `CC(C)C1Cc2c(sc3nc(SCC(=O)Nc4cccc5ccccc45)nc(N)c23)CO1` (stereo unspecified), the IC50 is > 50 µM (inactive).
For the compound `Cc1ccc2c(c1)-c1c(c(C(=O)N3CCN(c4ccccc4)CC3)nn1C)CS2`, the IC50 is > 50 µM (inactive).
`COc1cc(NC(=O)Cc2ccccc2)ccc1NC(=O)c1cc2ccccc2o1`: the IC50 was 2.32 µM.
In the case of `Cc1nnc(-c2nnc(NCc3ccc(Cl)cc3)c3ccccc23)o1` it was > 50 µM (inactive); in that of `Cc1nc(CN2CCn3c(Cn4cccn4)cnc3C2C)cs1` (stereo unspecified), > 50 µM (inactive); in that of `CCc1ccc(NC(=O)Cc2nnc(-c3ccc4ncccc4c3)o2)cc1`, 28.4 µM.
For `C=C(NC(=O)C(=C)NC(=O)c1csc(C2=N[C@@H]3c4csc(n4)[C@H]4NC(=O)c5csc(n5)[C@H]([C@](C)(O)[C@@H](C)O)NC(=O)C5CSC(=N5)/C(=C/C)NC(=O)C([C@@H](C)O)NC(=O)c5csc(n5)[C@]3(CC2)NC(=O)[C@H](C)NC(=O)C(=C)NC(=O)[C@H](C)NC(=O)C([C@@H](C)CC)NC2C=Cc3c(C(C)O)cc(nc3[C@H]2O)C(=O)OC4C)n1)C(N)=O` (stereo partly specified), the IC50 is > 50 µM (inactive).
For `CC(C)OC(=O)c1cc2c(ccn2C)n1CC(=O)N1CCN(C(=O)c2ccco2)CC1`, the IC50 was > 50 µM (inactive).
Regarding `O=C(CSc1nc2cc(C(F)(F)F)ccc2s1)NCC(=O)c1ccccc1`, the IC50 is 1.82 µM.
For `O=C(COC(=O)c1cc2c(s1)CCC2)c1ccc2[nH]c(=O)[nH]c2c1`, the IC50 was > 50 µM (inactive).
As to `O=S(=O)(c1ccccc1Cl)N1CCN(c2ccc3nnc(-c4ccco4)n3n2)CC1`, the IC50 is > 50 µM (inactive).
As for `CC(C)(C)c1ccc(C(=O)Nc2ccc(Oc3cccnc3)nc2)cc1`, the IC50 was > 50 µM (inactive).
Next, `O=C(Cn1c(=O)n(CCCC(=O)N2CC=C(c3ccccc3)CC2)c(=O)c2ccccc21)NCCC1=CCCCC1`: > 50 µM (inactive); `COc1cnc(CSc2ncccn2)cc1OCC(=O)Nc1cc(C)ccc1C`: 41.3 µM.
In the case of `COc1ccccc1-c1nc(-c2cn(-c3ccc(C)cc3)nn2)no1` it was 6.47 µM; in that of `Cc1nn(-c2ccccc2)c(C)c1C(=O)OCC(=O)Nc1cccc(C#N)c1`, > 50 µM (inactive); in that of `COc1ccc2c(c1)CCc1c(C(=O)NCc3cccnc3)noc1-2`, 19.4 µM.
Regarding `COc1cccc(NC(=O)C2Cn3ccnc3C3(CCN(C(C)=O)CC3)O2)c1` (stereo unspecified), the IC50 is > 50 µM (inactive).
`Cc1c2c(nc3ccccc13)-c1ccccc1CC2`: the IC50 was > 50 µM (inactive).
On to `CC(=O)c1sc(NC(=O)c2ccccc2-c2ccc(C(F)(F)F)cc2)nc1C`, for which the IC50 is 11 µM.
In the case of `COc1cccc2sc(N3CCN(c4nc5ccccc5s4)CC3)nc12` it was 39.3 µM.
For `COc1ccc(-c2cc(-c3ccccc3)nc(SCC(N)=O)c2C#N)cc1OC`, the IC50 is 1.59 µM.
Regarding `CC(=O)Nc1ccc(S(=O)(=O)NCc2ccc(C(=O)NCCc3ccc(Cl)cc3)cc2)cc1`, the IC50 is 1.71 µM.
Regarding `CC(=O)Nc1ccc(S(=O)(=O)NCc2ccc(C(=O)NCc3ccc(C)cc3)cc2)cc1`, the IC50 was 26.5 µM.
In the case of `O=C(Nc1ccc(Cl)cc1)Nc1cccn2ncnc12` it was 18.7 µM; in that of `Cc1nc(C(=O)Nc2cccc(Cl)c2Cl)nn1-c1cc(Cl)cc(Cl)c1`, 0.0981 µM; in that of `CC(C)(C)N=C1Nc2ncccc2NC12CCCN(C(=O)c1ccccc1)C2` (stereo unspecified), > 50 µM (inactive).
`Cc1cc(C2CC(=O)Nc3c2c(C)nn3-c2nc3ccccc3[nH]2)c(C)s1` (stereo unspecified): the IC50 was 26.5 µM.
Next, `COc1ccc(-c2cc3nc([C@H](C)NC(=O)Cc4cccc(F)c4)nn3cn2)cc1`: 3.92 µM; `O=C(OCc1cccc(Cl)c1)c1ccc2ccccc2n1`: > 50 µM (inactive).
In the case of `O=C(Cn1c(=O)nc(-c2ccccc2)c2ccccc21)NCc1ccc2c(c1)OCO2`, the IC50 is 26.2 µM.
In the case of `COc1ccc(/C=C/c2ccnc3nc(-n4cccc4)nn23)cc1`, the IC50 is > 50 µM (inactive).
Consider `Cc1cccc(NC(=O)CSc2nnc(-c3n[nH]c4c3CCC4)n2N)c1C`, for which the half-maximal inhibitory concentration (IC50) was 20.2 µM.
Next, `CCCCNC(=O)C1Sc2nnc(-c3ccccc3)n2NC1c1ccccc1` (stereo unspecified): 21.8 µM.
Next, `CC(C)(C)c1ccc(Cn2nnc3c(=O)[nH]c(C4CCN(S(=O)(=O)c5ccc(S(=O)(=O)NC6CC6)cc5)CC4)nc32)cc1`: 48.7 µM.
Consider `COc1cccc(-n2cnc3cc(C(=O)NC4CC4)ccc3c2=O)c1`, for which the IC50 was > 50 µM (inactive).
Take `CC1CC[C@@]2(NC1)O[C@H]1C[C@H]3[C@@H]4CC=C5C[C@@H](O)CC[C@]5(C)[C@H]4CC[C@]3(C)[C@H]1[C@@H]2C` (stereo partly specified): the IC50 is 13 µM.
As to `O=C(COc1ccc2ccccc2c1)Nc1cccc2ccccc12`, the IC50 is 21 µM.
In the case of `O=C(Nc1ccc(N2CCOCC2)cc1)c1ccc(-c2ccc(N3CCCC3)nn2)cc1` it was > 50 µM (inactive).
In the case of `Cc1nc2ccc(NC(=O)COc3ccccc3[N+](=O)[O-])cc2s1` it was 9.57 µM.
In the case of `COc1ccc(C(=O)NCc2csc3ccccc23)cc1` it was 45.2 µM.
For `N=C1C(c2nc3ccccc3s2)=C(O)CN1Cc1ccc(F)cc1`, the IC50 is > 50 µM (inactive).
Next, `Nc1c(C(=O)Nc2ccc3c(c2)OCO3)sc2nc(-c3cccnc3)ccc12`: 0.545 µM.
For `O=S1(=O)CCN(Cc2c(F)cccc2F)c2c(F)nc(N3CCOCC3)c(F)c21`, the IC50 was > 50 µM (inactive).
Regarding `O=C(Nc1ccc2c(c1)OCO2)c1cc(-c2cccnc2)n(-c2ccccc2)n1`, the IC50 was > 50 µM (inactive).
For `COc1ccc(C(=O)Nc2cc3c4c(c2)C(C)C(=O)N4CCC3)cc1` (stereo unspecified), the IC50 is > 50 µM (inactive).
Take `O=C(Nc1ccc(F)cc1F)NC1Cc2ccccc2C1`: the IC50 is 29 µM.
In the case of `CCOc1ccccc1C(=O)Nc1ccc2c(c1)Sc1ncccc1C(=O)N2C` it was > 50 µM (inactive).
With `COc1ccc(NC(=O)c2nnc(C(=O)NCCN3CCCCCC3)s2)cc1`, the IC50 was 5.34 µM.
Next, `COc1ccc(CN=C2NS(=O)(=O)C(c3ccc(F)cc3)=C2C)cc1OC`: 25.8 µM.
Next, `CCn1cc(NC(=O)CN2CCC3(CC=CCOC3)CC2)c(C)n1`: > 50 µM (inactive); `O=C(NCc1cccc(NC(=O)C2CC2)c1)Nc1cccc2ccccc12`: 21.7 µM; `O=C(NCc1ccc2c(c1)OCO2)c1cc(-c2cc(Cl)ccc2O)n[nH]1`: 2.82 µM.
Turning to `O=c1[nH]c(C2CCN(S(=O)(=O)c3ccc(S(=O)(=O)NC4CCCC4)cc3)CC2)nc2c1nnn2Cc1cccc(Cl)c1`, the IC50 was > 50 µM (inactive).
In the case of `Cc1ccc(C2c3cccn3CCN2C(=O)Nc2ccccc2)cc1` (stereo unspecified), the IC50 was > 50 µM (inactive).
For the compound `COc1ccc2[nH]c3c(c2c1)CCN1C(=O)N(c2ccccc2C(=O)NCc2ccccc2)C(=O)[C@]31C`, the IC50 was 28.5 µM.
In the case of `O=C(Nc1ccccc1)c1cn(-c2cc(N3CCCC3)ncn2)cn1` it was > 50 µM (inactive).

Usually IC50 stands for the concentration that gives 50% inhibition.
